Experimental data taken from patent publication US20190212343A1, “METHODS FOR THE TREATMENT OF DISORDERS RELATED TO PHOSPHORYLATION OF HISTONES” (H. LEE MOFFITT CANCER CENTER AND RESEARCH INSTITUTE, INC., priority 2014, published 2019).
“Also recorded” adds a separate entry of the source.

Key:
[1] = system: histone H3 Tyr99-phosphorylation (ACK1); experiment: Histone H3 Tyr99-phosphorylation in HEK293 cells (pY99-H3 immunoprecipitation / H3 immunoblot); format: cell-based; settings: HEK293 cells
Experimental: FIGS. 3A-3E show Ack1 phosphoryltes H3 at Tyr99 residue. […] (FIG. 3B) HEK293 cells co-expressing Myc-tagged Ack1 (WT) or KD mutant ACK1 and FLAG-tagged H3 or Y99F mutant […] were serum-starved (24h) and lysates were immunoprecipitated with pY99-H3 antibodies followed by immunoblotting with FLAG antibody (top panel). (FIG. 3C) HEK293 cells were treated with EGF ligand for indicated time points. Equal amounts of lysates were immunoprecipitated pY99-H3 antibodies followed by with immunoblotting with H3 antibody (top panel). (FIG. 3D) HEK293 cells were treated with ACK1 inhibitor, AIM-100 (5 uM overnight) and/or EGF ligand 20 min. Equal amounts of lysates were immunoprecipitated pY99-H3 antibodies followed by with immunoblotting with H3 antibody (top panel). […] (FIG. 3E) HEK293 cells were treated with increasing concentrations of AIM-100 (1, 2, 3 and 5 μM). Equal amounts of lysates were immunoprecipitated pY99-H3 antibodies followed by with immunoblotting with H3 antibody (top panel).
The Tyrosine99 or Y99 site in H3 protein is evolutionarily conserved (FIG. 3A). To examine whether H3 is ACK1 kinase substrate, HEK293 cells were co-transfected with HA-tagged ACK1 and FLAG-tagged H3 or FLAG-tagged Y99F mutant H3 expressing constructs. ACK I specifically phosphorylated H3 protein, but not the Y99F mutant protein (FIG. 3B). […]

[2] = system: histone H3 Tyr99-phosphorylation (ACK1); experiment: Histone H3 Tyr99-phosphorylation in JAR cells (immunoblotting); format: cell-based, human; settings: EGF+AIM-100
Experimental: FIGS. 5A-5D show ACK1 deposits pY99-H3 epigenetic marks in SLC6A4 promoter and intron 2. (FIG. 5A) Lysates prepared from JAR cells treated with EGF ligand were subjected to immunoblotting with indicated antibodies. (FIG. 5B) Lysates prepared from JAR cells treated with EGF or AIM-100 were subjected to immunoblotting with indicated antibodies. (FIG. 5C) Total RNA was prepared from JAR cells untreated or treated with EGF ligand followed by quantitative RT-PCR using SLC6A4 and actin primers. The ratio of SLC6A4 to actin is shown. (FIG. 5D) JAR cells were treated with EGF ligand and ChIP was performed using pY99-H3 antibodies followed by quantitative PCR using primers corresponding to intron 2 (VNTR).
JAR cells are human placenta-derived epithelial cells that express SLC6A4 or SERT. Applicant first assessed presence of ACK1 signaling in JAR cells by treating these cells with EGF ligand. […] ACK1 activation was also reflected in histone H3 Tyr99-phosphorylation (FIG. SA, 2nd panel).
To validate critical role of ACK1 in histone H3 Tyr99-phosphoryation, JAR cells were treated with EGF or EGF+AIM-100.

[3] = system: AR and H3K4me3 at intron 2 of AR gene; experiment: ChIP with AR or H3K4me3 antibodies and qPCR at intron 2 of AR gene; format: cell-based, human; settings: LNCaP cells, absence of androgen
Experimental: LNCaP cells treated with AIM-100 and ChIP was performed using AR, H3K4me3 or IgG antibodies followed by qPCR using primers corresponding to intron 2, or control region. *p<0.05, **p<0.05.

## c1ccc(-c2oc3ncnc(NC[C@@H]4CCCO4)c3c2-c2ccccc2)cc1 [AIM-100]
[1]; increasing concentrations of inhibitor
  concentration resulting in complete loss of pY99-H3: 0.5 μM
[1]; inhibitor 5 uM overnight, EGF ligand 20 min
  histone H3 Tyr99-phosphorylation: complete loss of histone H3 Tyr99-phosphorylation; also recorded: suppressed histone H3 Tyr99-phosphorylation
[2]
  histone H3 Tyr99-phosphorylation: almost complete loss of histone phosphorylation
[3]
  AR enrichment at intron 2 of AR gene: abolished
  H3K4me3 methyl marks at intron 2 of AR gene: abolished
